Experimental data reported in article PMC8706783 (Pharmaceutics, 2021).

How the values were obtained:
UGT1A8 = target: T1, UGT1A8 (Homo sapiens, UniProt Q9HAW9); assay: Reaction phenotyping, rUGT1A8; details: recombinant UGT1A8, pH 7.4
T1 sequence (Q9HAW9 26-530): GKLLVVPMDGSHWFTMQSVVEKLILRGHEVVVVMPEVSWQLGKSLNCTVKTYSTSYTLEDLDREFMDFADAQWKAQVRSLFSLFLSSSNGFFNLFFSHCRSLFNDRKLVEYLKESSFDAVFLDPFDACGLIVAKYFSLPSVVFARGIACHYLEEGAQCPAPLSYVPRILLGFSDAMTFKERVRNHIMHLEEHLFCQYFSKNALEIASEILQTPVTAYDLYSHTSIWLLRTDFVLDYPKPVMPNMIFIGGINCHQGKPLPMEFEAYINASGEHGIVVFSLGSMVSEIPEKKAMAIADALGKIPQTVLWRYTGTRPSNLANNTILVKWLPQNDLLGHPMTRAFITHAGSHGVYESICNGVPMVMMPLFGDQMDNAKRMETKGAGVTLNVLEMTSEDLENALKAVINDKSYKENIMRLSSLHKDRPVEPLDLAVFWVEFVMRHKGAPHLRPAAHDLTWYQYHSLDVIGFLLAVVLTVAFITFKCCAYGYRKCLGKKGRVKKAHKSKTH

[1] = Reaction phenotyping, HLM with UDPGA; details: human, human liver microsomes, pH 7.4
UGT1A7 = target: T2, UGT1A7 (Homo sapiens, UniProt Q9HAW7); assay: Reaction phenotyping, rUGT1A7; details: recombinant UGT1A7, pH 7.4
T2 sequence (Q9HAW7 26-530): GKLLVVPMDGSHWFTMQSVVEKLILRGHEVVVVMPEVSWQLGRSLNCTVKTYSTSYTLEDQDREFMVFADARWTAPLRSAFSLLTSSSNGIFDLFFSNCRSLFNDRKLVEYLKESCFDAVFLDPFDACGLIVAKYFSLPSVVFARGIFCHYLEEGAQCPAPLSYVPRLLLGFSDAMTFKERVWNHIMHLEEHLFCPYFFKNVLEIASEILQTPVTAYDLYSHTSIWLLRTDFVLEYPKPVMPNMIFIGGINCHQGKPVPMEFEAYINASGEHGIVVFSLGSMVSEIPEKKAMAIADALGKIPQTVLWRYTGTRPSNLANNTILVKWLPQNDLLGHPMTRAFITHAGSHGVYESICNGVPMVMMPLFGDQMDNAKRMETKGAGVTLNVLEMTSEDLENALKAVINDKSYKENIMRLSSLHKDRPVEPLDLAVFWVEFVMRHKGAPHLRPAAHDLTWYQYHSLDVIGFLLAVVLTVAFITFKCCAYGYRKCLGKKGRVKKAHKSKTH

UGT1A6 = target: T3, UGT1A6 (Homo sapiens, UniProt P19224); assay: Reaction phenotyping, rUGT1A6; details: recombinant UGT1A6, pH 7.4
T3 sequence (P19224 27-532): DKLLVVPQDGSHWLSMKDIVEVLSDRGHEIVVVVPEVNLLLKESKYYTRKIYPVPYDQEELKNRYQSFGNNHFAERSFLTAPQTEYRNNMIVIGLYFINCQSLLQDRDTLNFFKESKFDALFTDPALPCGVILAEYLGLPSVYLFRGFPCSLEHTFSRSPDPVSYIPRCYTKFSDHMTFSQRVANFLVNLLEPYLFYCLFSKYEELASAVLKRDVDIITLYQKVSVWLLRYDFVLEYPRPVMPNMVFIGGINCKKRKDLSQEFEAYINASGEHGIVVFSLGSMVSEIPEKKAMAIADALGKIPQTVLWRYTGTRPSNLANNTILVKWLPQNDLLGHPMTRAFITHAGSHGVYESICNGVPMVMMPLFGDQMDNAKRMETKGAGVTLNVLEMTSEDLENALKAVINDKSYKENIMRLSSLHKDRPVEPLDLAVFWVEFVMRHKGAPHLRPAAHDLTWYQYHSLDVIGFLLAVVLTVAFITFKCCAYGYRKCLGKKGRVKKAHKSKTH

rCYP1B1 = rCYP1B1 (Homo sapiens, UniProt Q16678); details: recombinant enzyme, 1 h
UGT1A9 = target: T4, UGT1A9 (Homo sapiens, UniProt O60656); assay: Reaction phenotyping, rUGT1A9; details: recombinant UGT1A9, pH 7.4
T4 sequence (O60656 26-530): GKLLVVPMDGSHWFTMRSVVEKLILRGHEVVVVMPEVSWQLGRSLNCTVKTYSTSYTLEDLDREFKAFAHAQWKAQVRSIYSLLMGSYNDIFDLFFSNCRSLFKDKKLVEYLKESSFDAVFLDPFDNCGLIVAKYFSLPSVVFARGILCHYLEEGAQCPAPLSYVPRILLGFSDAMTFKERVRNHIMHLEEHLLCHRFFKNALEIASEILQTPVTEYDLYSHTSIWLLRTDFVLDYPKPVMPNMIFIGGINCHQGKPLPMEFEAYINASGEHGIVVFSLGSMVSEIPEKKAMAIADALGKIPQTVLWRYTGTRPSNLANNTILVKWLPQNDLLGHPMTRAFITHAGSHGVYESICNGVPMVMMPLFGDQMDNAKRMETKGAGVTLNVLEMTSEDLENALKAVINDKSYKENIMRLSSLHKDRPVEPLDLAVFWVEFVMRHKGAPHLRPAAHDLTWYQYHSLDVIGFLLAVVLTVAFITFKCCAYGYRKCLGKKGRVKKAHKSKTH

CYP1A2 = target: T5, CYP1A2 (Homo sapiens, UniProt P05177); assay: Reaction phenotyping, rCYP1A2; details: recombinant CYP1A2, pH 7.4
T5 sequence (P05177 1-516): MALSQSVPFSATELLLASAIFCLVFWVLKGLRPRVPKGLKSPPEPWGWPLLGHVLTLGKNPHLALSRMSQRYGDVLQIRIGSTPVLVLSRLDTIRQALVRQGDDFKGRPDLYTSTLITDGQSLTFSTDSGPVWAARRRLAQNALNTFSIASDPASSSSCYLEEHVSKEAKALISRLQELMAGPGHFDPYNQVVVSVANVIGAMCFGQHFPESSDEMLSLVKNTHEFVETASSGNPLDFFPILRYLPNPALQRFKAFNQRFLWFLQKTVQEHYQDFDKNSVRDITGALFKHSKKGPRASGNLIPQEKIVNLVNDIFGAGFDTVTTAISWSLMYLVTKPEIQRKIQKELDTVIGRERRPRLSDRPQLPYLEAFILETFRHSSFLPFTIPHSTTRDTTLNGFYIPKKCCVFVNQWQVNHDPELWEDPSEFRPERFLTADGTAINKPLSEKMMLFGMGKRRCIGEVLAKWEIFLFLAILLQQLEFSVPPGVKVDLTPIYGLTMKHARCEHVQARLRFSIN

CYP1A1 = target: T6, CYP1A1 (Homo sapiens, UniProt P04798); assay: Reaction phenotyping, rCYP1A1; details: recombinant CYP1A1, pH 7.4
T6 sequence (P04798 1-512): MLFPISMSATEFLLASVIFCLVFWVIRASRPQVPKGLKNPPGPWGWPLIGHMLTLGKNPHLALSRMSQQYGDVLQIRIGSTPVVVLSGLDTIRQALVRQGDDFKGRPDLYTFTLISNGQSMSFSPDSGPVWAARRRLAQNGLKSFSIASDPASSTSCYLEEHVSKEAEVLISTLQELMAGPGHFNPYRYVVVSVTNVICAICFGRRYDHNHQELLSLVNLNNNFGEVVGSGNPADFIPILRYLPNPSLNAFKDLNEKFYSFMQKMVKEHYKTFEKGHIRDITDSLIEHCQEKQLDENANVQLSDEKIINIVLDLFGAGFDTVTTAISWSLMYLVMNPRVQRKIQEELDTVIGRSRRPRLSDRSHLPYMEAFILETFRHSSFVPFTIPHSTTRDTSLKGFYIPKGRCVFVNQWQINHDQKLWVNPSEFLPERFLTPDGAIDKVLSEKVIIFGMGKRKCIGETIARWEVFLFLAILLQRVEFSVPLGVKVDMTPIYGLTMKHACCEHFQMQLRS

UGT1A4 = target: T7, UGT1A4 (Homo sapiens, UniProt P22310); assay: Reaction phenotyping, rUGT1A4; details: recombinant UGT1A4, pH 7.4
T7 sequence (P22310 29-534): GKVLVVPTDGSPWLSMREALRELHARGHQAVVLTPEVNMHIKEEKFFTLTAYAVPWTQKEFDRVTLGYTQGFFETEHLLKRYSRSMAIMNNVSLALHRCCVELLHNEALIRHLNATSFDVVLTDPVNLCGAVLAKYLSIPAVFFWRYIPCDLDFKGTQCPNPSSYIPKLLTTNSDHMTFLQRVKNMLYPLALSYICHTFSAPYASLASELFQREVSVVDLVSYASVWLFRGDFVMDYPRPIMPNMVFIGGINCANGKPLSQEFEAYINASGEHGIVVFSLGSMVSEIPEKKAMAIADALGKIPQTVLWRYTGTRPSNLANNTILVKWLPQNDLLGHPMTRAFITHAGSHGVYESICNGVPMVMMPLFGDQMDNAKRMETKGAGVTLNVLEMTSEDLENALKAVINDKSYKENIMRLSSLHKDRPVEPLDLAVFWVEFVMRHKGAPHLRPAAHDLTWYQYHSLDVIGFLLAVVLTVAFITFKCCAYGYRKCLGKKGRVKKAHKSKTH

UGT2B7 = target: T8, UGT2B7 (Homo sapiens, UniProt P16662); assay: Reaction phenotyping, rUGT2B7; details: recombinant UGT2B7, pH 7.4
T8 sequence (P16662 24-529): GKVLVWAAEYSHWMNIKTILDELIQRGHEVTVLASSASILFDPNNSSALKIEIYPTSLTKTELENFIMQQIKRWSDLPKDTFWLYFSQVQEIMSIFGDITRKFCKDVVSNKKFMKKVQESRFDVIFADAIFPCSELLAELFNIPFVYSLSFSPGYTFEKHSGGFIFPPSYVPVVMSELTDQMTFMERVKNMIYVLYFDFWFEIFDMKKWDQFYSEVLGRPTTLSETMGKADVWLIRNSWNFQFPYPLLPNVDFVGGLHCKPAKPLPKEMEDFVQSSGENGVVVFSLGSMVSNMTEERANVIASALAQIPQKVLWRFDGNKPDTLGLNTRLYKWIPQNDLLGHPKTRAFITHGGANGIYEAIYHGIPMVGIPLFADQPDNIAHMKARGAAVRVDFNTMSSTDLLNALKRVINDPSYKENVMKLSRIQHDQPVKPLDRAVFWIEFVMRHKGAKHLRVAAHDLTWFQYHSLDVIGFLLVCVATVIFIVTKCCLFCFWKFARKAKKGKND

Chain of rCYP1B1 (Q16678 whole entry): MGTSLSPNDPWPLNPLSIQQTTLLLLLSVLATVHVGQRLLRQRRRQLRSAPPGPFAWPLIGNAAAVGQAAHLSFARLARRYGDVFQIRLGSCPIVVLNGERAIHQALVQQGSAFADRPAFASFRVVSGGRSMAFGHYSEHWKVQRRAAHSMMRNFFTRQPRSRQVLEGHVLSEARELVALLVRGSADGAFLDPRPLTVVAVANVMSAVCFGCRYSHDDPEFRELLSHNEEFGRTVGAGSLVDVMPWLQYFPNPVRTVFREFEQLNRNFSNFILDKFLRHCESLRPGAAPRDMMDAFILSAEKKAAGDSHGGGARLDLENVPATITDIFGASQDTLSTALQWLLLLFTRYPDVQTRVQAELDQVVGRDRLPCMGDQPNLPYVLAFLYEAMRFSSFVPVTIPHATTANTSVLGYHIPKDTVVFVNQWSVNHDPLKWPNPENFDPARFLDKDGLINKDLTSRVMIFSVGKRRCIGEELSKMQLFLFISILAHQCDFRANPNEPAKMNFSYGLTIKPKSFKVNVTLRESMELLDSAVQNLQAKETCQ

`Cc1cc(=O)oc2cc(O)ccc12` [4-methylumbelliferone] gave a remaining at 1 h, 2 µM (UGT1A8) of 49.9%, a remaining at 1 h, 2 µM [1] of 0.82% and a remaining at 1 h, 10 µM (UGT1A7) of 70.9%. For the same compound, the remaining at 1 h, 2 µM (UGT1A6) was 5.26%.
With `CCOc1ccc2nc3ccc(=O)cc-3oc2c1` [7-ethoxyresorufin] the “Known Substrate (% Remaining at 60 min)” value (rCYP1B1) was 7-ethoxyresorufin (35.11) %.
With `COc1c(C)c2c(c(O)c1C/C=C(\C)CCC(=O)O)C(=O)OC2` [Mycophenolic acid] the remaining at 1 h, 0.2 µM (UGT1A9) was 0%.
Compound `CCOc1ccc(NC(C)=O)cc1` [Phenacetin] has a remaining at 1 h, 10 µM (CYP1A2) of 65.8% and a remaining at 1 h, 10 µM (CYP1A1) of 41%.
In the case of `CN1CCN(CCCN2c3ccccc3Sc3ccc(C(F)(F)F)cc32)CC1` [Trifluoperazine], the remaining at 1 h, 0.5 µM (UGT1A4) is reported as 73.1%.
For `Cc1cn([C@H]2C[C@H](N=[N+]=[N-])[C@@H](CO)O2)c(=O)[nH]c1=O` [Zidovudine], the remaining at 1 h, 10 µM (UGT2B7) was 74.4%.
